Data from patent US6172064A, “Formamides as therapeutic agents” (Glaxo Wellcome Inc., priority 1999, dated 2001).
Like-named read-outs stand apart in the source and are kept apart here.

Columns and labels:
[1] = target: T1, TNFα converting enzyme (membrane preparation from MonoMac 6 cells) (Homo sapiens, UniProt P78536); experiment: TNFα Converting Enzyme Inhibition; assay type: biochemical
T1 construct: Membrane preparation from MonoMac 6 cells; endogenous in cells; host or cells: MonoMac 6 cells (membrane preparation, subfractionated extract)
Description: The potency of compounds of the invention as inhibitors of cell-free tumor necrosis factor α converting enzyme is determined as follows: Membrane preparation from MonoMac 6 cells (subfractionated extract from equivalent of 6×10^6 cells per 60 μl assay) is incubated for 1 hr with 200 nM radiolabeled substrate (Biotin-SPLAQAVRSSSRT-(^3 H)P-S--NH2, 4.1 Ci/mmol, ref #0935 from Zeneca) in 10 mM hepes buffer, 250 mM sucrose, pH=7.5. The reaction is quenched by addition of streptavidin SPA beads (Amersham RPNQ0006), with excess binding capacity relative to substrate, suspended in 250 mM EDTA, pH=8.0. Binding is complete within 15 minutes and plates are counted in a Wallac 1450 Microbeta liquid scintillation counter. Percent inhibition is calculated at each inhibitor concentration and the data were plotted using standard curve fitting programs. Approximate IC50 values were determined from these curves. Assays were run at low substrate concentration ([S]<<Km) such that the calculated IC50 values are equivalent to Ki within experimental error.

[2] = target: T2, 19 kD truncated collagenase-1 (MMP-1) (Homo sapiens, UniProt P03956); experiment: Matrix Metalloprotease Inhibition, Collagenase-1; assay type: biochemical; conditions: 500 pM enzyme, 10 μM fluorogenic substrate, pH=7.6; approximate IC50 equivalent to Ki ([S]<<Km)
T2 construct: 19 kD truncated collagenase-1 (MMP-1)
T2 sequence (P03956 101-269 limits assumed): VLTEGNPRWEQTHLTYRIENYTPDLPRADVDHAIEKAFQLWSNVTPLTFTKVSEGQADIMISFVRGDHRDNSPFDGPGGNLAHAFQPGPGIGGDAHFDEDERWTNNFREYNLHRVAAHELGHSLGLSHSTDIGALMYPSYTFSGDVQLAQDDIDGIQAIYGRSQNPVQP
Description: (§1) The potency of compounds of the invention as inhibitors of 19 kD truncated collagenase-1 (MMP-1), 20 kD truncated collagenase-3 (MMP-13), stromelysin-1 (MMP-3), and 50 kD truncated gelatinase B (MMP-9) is determined according to the general procedure of Bickett et. al. (Anal. Biochem. 1993, 212, 58-64) using the fluorogenic substrate, DNP-Pro-Cha-Gly-Cys(Me)-His-Ala-Lys(NMA)--NH2 (DNP=2,4-dinitrophenyl,NMA=N-methylanthranilic acid). Assays are conducted in a total volume of 0.180 mL assay buffer (200 mM NaCl, 50 mM Tris, 5 mM CaCl2, 10 μM ZnSO4, 0.005% Brij 35, pH=7.6) in each well of a black 96 well microtiter plate. 19 kD collagenase-1, 20 kD collagenase-3, stromelysin-1,and 50 kD gelatinase B concentrations are adjusted to 500 pM, 30 pM, 5 nM, and 100 pM, respectively. A dose response is generated using an eleven-point, 3-fold serial dilution with initial starting test compound concentrations of 100, 10, or 1 μM. Inhibitor and enzyme reactions are incubated for 30 minutes at ambient temperature and then initiated with 10 μM fluorogenic substrate (above). The product formation is measured at Excitation343 /Emission450 nm after 45-180 minutes using a Fluostar SLT fluorescence analyzer. Percent inhibition is calculated at each inhibitor concentration and the data were plotted using standard curve fitting programs. Approximate IC50 values were determined from these curves. Assays were run at low substrate concentration ([S]<<Km) such that the calculated IC50 values are equivalent to Ki within experimental error.

[3] = target: 20 kD truncated collagenase-3 (MMP-13); experiment: Matrix Metalloprotease Inhibition, Collagenase-3; assay type: biochemical; conditions: 30 pM enzyme, 10 μM fluorogenic substrate, pH=7.6; approximate IC50 equivalent to Ki ([S]<<Km)
Description: as §1

[4] = target: 50 kD truncated gelatinase B (MMP-9); experiment: Matrix Metalloprotease Inhibition, Gelatinase B; assay type: biochemical; conditions: 100 pM enzyme, 10 μM fluorogenic substrate, pH=7.6; approximate IC50 equivalent to Ki ([S]<<Km)
Description: as §1

stromelysin-1 (MMP-3) = stromelysin-1 (MMP-3) (Homo sapiens, UniProt P08254); experiment: Matrix Metalloprotease Inhibition, Stromelysin-1; assay type: biochemical; conditions: 5 nM enzyme, 10 μM fluorogenic substrate, pH=7.6; approximate IC50 equivalent to Ki ([S]<<Km)
Description: as §1

[5] = tested on: TNFα release from LPS/PMA-stimulated MonoMac 6 cells; experiment: Cell-Based TNFα Release Inhibition; conditions: Homo sapiens, MONO-MAC-6, LPS/PMA stimulation, 2 hours, 37° C.
Description: The potency of compounds of the invention as inhibitors of release of soluble tumor necrosis factor α from stimulated monocytes in vitro is determined as follows: LPS/PMA solution for assay consisting of a) 4 μL of 5 mg/mL LPS stock and b) 6 μL of 10 mg/mL PMA stock are added to 500 μL of medium (RPMI 1640 (Gibco)+10% FBS+penicillin/streptomycin+1-glutamine). This solution is then diluted 1:1000 (40 ng/mL and 120 ng/mL) for use later in the assay. Compounds (10 mM) are serially diluted 1:3 in DMSO. Compound dilutions (20 μL) are added to a sterile round bottom 96 well plate (20 μL:200 μL total volume=1:10 for final concentrations of […] for test compounds). MonoMac 6 cell suspension (130 μL, 1.5×10^6 cells/mL) is then added to each well resulting in 2×10^5 cells/well. LPS/PMA (50 μL) solution is then added to each well to begin stimulation (final concentrations of […] and 30 ng/mL respectively). The plate is incubated at 37° C. for 2 hours then spun at 1,500 rpm for 3 minutes to pellet cells. The supernatant (120 μL/well) is removed to a new round bottom 96 well plate and diluted 1:10 in PBS. Then, 20 μL of the supernatant is transferred to a Cistron TNFα ELISA plate and processed according to the manufacturer's instructions to quantitate levels of TNFα. […]

Colo 205 Human Colon = experiment: Xenograft in vivo assay, Colo 205; conditions: female NU/NU mice, p.o. once a day, 14 days, 30 mg/kg and 90 mg/kg
Description: (§2) Female NU/NU mice with a weight of 21±2 g are weighed and used. Control and test animals are injected subcutaneously in the axillary region with a suspension of 2×10^6 viable tumor cells in 200 uL in PBS±matrigel on day 0. Tumors are allowed to grow for 10 to 14 days prior to drug administration. Doses of test drug are given on a mg/kg basis according to the mean body weight for each cage. For each drug, two doses are used, 30 mg/kg and 90 mg/kg, and are administered by p.o. route once a day over a 14 day time span. Tumor weight is calculated from two perpendicular caliper measurements of the tumor using the formula, tumor weight=length×width2.div.2 in millimeters. For each animal, tumor weight is monitored over the course of the experiment, and expressed as the percent of the tumor's weight. For each group, the mean increase in tumor weight over the course of the experiment is calculated (tumor weightday […]-tumor weightday 14=≈tumor weight) and the results expressed as percent inhibition of tumor growth with respect to the control group [1-(≈tumor weight treated group/(≈tumor weight control group)]×100. Results are presented in Table 4. The criterion for antitumor activity is 25% inhibition of tumor growth after 2 weeks of dosing (day 14).

SW 620 Human Colon = experiment: Xenograft in vivo assay, SW 620; conditions: female NU/NU mice, p.o. once a day, 14 days, 30 mg/kg and 90 mg/kg
Description: as §2

[6] = tested on: Lewis Lung M27 Murine Lung; experiment: Xenograft in vivo assay, Lewis Lung M27; conditions: female NU/NU mice, p.o. once a day, 14 days, 30 mg/kg and 90 mg/kg
Description: as §2

B16B6 Murine Melanoma = experiment: Xenograft in vivo assay, B16B6; conditions: female NU/NU mice, p.o. once a day, 14 days, 30 mg/kg and 90 mg/kg
Description: as §2

[7] = tested on: Mat Ly Lu Murine Prostate; experiment: Xenograft in vivo assay, Mat Ly Lu; conditions: female NU/NU mice, p.o. once a day, 14 days, 30 mg/kg and 90 mg/kg
Description: as §2

A549 Human Lung = experiment: Xenograft in vivo assay, A549; conditions: female NU/NU mice, p.o. once a day, 14 days, 30 mg/kg and 90 mg/kg
Description: as §2

[8] = MonoMac 6 membrane preparation, 200 nM radiolabeled substrate, pH=7.5, 1 hr, approximate IC50 equivalent to Ki ([S]<<Km), read-out: TNFα Converting Enzyme Ki

Chain of stromelysin-1 (MMP-3) (P08254 100-477): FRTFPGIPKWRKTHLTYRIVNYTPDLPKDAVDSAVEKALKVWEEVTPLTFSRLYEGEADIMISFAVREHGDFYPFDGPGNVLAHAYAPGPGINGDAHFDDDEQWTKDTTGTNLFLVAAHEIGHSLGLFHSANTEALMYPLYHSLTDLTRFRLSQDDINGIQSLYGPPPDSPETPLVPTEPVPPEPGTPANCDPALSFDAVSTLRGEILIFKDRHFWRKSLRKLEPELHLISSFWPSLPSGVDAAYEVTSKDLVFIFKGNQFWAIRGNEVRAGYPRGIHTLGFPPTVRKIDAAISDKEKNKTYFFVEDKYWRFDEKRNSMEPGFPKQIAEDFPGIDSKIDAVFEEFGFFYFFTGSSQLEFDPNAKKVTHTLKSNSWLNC
T1 sequence (P78536 215-824): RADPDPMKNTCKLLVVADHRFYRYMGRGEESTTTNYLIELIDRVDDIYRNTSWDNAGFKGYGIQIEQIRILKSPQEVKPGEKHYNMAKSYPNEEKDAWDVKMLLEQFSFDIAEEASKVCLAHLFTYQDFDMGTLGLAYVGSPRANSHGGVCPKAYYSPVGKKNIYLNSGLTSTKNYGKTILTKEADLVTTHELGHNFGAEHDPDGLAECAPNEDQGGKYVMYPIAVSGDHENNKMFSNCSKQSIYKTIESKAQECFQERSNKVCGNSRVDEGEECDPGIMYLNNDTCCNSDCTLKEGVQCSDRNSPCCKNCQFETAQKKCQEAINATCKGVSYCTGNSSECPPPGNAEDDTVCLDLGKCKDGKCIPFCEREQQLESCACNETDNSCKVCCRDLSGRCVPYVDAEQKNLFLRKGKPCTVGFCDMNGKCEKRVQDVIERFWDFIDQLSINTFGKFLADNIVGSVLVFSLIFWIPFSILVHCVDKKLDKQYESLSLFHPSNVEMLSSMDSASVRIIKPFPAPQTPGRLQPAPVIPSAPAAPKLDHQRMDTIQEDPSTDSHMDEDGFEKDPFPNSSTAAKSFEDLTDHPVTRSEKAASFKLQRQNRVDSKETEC

Row | Ki [2] [nM] | Ki [3] [nM] | Ki [4] [nM] | Ki (stromelysin-1 (MMP-3)) [nM] | Ki [1, 8] [nM] | SMILES | Ki [1] [nM] | IC50 [5] [nM] | percent inhibition of tumor growth (Colo 205 Human Colon) | percent inhibition of tumor growth (SW 620 Human Colon) | percent inhibition of tumor growth [6] | percent inhibition of tumor growth (B16B6 Murine Melanoma) | percent inhibition of tumor growth [7] | percent inhibition of tumor growth (A549 Human Lung)
1 | 50 to 500 | 0.001 to 0.5 | 0.5 to 5 | 5 to 50 | 50 to 500 | C[C@@H]([C@@H](CCCc1ccc(Cl)cc1)C(=O)N[C@H](C(=O)NCCCN1CCOCC1)C(C)(C)C)N(O)C=O [Example 24, (2R,3S)-3-(Formylhydroxyamino)-2-(3-(4-chlorophenyl)-1-propyl)-butanoic Acid[(1S)-2,2-Dimethyl-(1-(3-(4-morpholino)-1-propyl)carbamoyl)-1-propyl]amide] | – | – | – | – | – | – | – | –
2 | 5 to 50 | 0.001 to 0.5 | 0.001 to 0.5 | 5 to 50 | > 500 | CNC(=O)[C@@H](NC(=O)[C@H](CCCc1ccc(Cl)cc1)[C@H](C)N(O)C=O)C(C)(C)C [Example 2] | – | – | – | – | – | – | – | –
3 | 50 to 500 | 0.001 to 0.5 | 0.5 to 5 | 50 to 500 | > 500 | C[C@@H]([C@@H](CCCc1ccc(Cl)cc1)C(=O)N[C@H](C(=O)NCc1ccccn1)C(C)(C)C)N(O)C=O [Example 20, (2R,3S)-3-(Formylhydroxyamino)-2-(3-(4-chlorophenyl)-1-propyl)-butanoic Acid [(1S)-2,2-Dimethyl-(1-(2-pyridylmethyl)carbamoyl)-1-propyl]amide] | – | – | – | – | – | – | – | –
4 | 50 to 500 | 0.001 to 0.5 | 0.5 to 5 | 5 to 50 | 50 to 500 | CC(C)[C@@H]([C@@H](CCCc1ccc(Cl)cc1)C(=O)N[C@H](C(=O)NCc1cccnc1)C(C)(C)C)N(O)C=O [Example 9] | – | – | – | – | – | – | – | –
5 | 50 to 500 | 0.5 to 5 | 0.5 to 5 | 5 to 50 | > 500 | CNC(=O)[C@@H](NC(=O)[C@H](CCCCCc1ccccc1)[C@H](C)N(O)C=O)C(C)(C)C [Example 61, (2R,3S)-3-(Formylhydroxyamino)-2-(5-phenyl-1-pentyl)butanoic Acid [(1S)-2,2-Dimethyl-(1-methylcarbamoyl)-1-propyl]amide] | – | – | – | – | – | – | – | –
6 | 50 to 500 | 0.5 to 5 | 0.5 to 5 | 5 to 50 | 50 to 500 | CNC(=O)[C@@H](NC(=O)[C@H](CCCc1ccc(C)cc1)[C@H](C)N(O)C=O)C(C)(C)C [Example 52, (2R,3S)-3-(Formylhydroxyamino)-2-(3-(4-methylphenyl)-1-propyl)butanoic Acid [(1S)-2,2-Dimethyl-(1-methylcarbamoyl)-1-propyl]amide] | – | – | – | – | – | – | – | –
7 | 5 to 50 | 0.001 to 0.5 | 0.5 to 5 | 50 to 500 | 50 to 500 | CNC(=O)[C@@H](NC(=O)[C@H](CCCc1cccs1)[C@H](C)N(O)C=O)C(C)(C)C [Example 3] | – | – | – | – | – | – | – | –

Row | SMILES | Ki [2] [nM] | Ki [3] [nM] | Ki [4] [nM] | Ki (stromelysin-1 (MMP-3)) [nM] | Ki [1, 8] [nM] | Ki [1] [nM] | IC50 [5] [nM] | percent inhibition of tumor growth (Colo 205 Human Colon) | percent inhibition of tumor growth (SW 620 Human Colon) | percent inhibition of tumor growth [6] | percent inhibition of tumor growth (B16B6 Murine Melanoma) | percent inhibition of tumor growth [7] | percent inhibition of tumor growth (A549 Human Lung)
8 | CNC(=O)[C@@H](NC(=O)[C@H](CCCc1ccccc1)[C@H](C)N(O)C=O)C(C)(C)C [Example 1] | 50 to 500 | 0.5 to 5 | 0.5 to 5 | 50 to 500 | – | 50 to 500 | > 500 | ++ (51-75% Inhibition) | ++ (51-75% Inhibition) | + (26-50% Inhibition) | + (26-50% Inhibition) | ++ (51-75% Inhibition) | ++++ (>100% Inhibition (Tumor Regression))
